Paper doi:10.1101/2022.01.18.476765v1, “How a Formate Dehydrogenase Responds to Oxygen: Unexpected O2 Insensitivity of an Enzyme Harboring Tungstopterin, Selenocysteine, and [4Fe-4S] Clusters” (biorxiv, 2022)

Columns and labels:
DvH-FDH2 [1] = biological target: T1, DvH-FDH2 (Nitratidesulfovibrio vulgaris, UniProt Q728X0); experiment: PES/DCPIP reduction at […] nm, global fit of full progress curves; type: biochemical; conditions: in air; 1 mM PES / 93 μM DCPIP; 50 mM Tris pH 8.0; Km calculated from kcat and kcat/Km
T1 construct: gene fdnG-2; heterodimer, W-bis-pyranopterin, Sec, four [4Fe-4S]; Strep-tag II at C-terminus of large subunit, kept; periplasmic, Tat signal peptide on large subunit; homologous expression in DvH JW2127 (all fdh loci deleted), strain CSR21271; aerobic purification; with Formate dehydrogenase, beta (small) subunit, iron-sulfur
T1 sequence (Q728X0 36-1003): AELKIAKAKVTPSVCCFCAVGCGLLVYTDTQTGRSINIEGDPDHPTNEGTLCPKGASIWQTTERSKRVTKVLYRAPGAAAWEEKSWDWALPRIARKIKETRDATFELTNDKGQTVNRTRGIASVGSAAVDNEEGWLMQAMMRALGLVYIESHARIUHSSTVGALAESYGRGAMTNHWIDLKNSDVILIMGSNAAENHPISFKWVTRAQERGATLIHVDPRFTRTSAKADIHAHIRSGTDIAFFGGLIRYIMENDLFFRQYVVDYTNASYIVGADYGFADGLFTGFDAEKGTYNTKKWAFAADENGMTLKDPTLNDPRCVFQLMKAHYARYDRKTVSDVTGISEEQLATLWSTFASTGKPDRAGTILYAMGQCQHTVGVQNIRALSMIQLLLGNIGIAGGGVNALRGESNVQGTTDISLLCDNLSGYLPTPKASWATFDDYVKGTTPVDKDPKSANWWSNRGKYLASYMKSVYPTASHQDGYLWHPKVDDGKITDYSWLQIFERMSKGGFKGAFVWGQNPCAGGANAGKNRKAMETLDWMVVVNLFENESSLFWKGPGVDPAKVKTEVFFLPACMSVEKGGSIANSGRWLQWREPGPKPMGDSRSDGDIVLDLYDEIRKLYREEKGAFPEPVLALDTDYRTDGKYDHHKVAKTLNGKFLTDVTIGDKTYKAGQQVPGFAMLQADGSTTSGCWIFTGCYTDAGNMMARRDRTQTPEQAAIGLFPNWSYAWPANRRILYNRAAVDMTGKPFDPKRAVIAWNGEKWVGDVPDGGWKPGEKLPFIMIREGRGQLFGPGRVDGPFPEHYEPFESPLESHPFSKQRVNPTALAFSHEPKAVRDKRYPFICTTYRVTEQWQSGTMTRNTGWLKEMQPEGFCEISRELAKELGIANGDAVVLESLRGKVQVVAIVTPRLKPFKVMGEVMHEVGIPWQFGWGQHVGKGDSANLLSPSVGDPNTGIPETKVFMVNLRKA
T1 sequence (Q728X1 1-260 partner): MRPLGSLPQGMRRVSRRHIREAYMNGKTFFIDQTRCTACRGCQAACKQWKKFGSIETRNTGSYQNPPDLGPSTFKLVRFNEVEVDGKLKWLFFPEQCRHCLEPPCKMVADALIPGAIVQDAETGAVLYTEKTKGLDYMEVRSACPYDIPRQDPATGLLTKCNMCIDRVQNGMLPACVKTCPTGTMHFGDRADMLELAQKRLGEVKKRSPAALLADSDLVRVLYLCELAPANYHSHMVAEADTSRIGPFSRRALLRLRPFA

DvH-FDH2 [2] = biological target: T1, DvH-FDH2; experiment: PES/DCPIP reduction at […] nm, inhibition of formate oxidation; type: biochemical; conditions: formate with PES/DCPIP; 50 mM Tris pH 8.0; with and without O2

Compound | Km (DvH-FDH2 [1]) [µM] | inhibition profile (DvH-FDH2 [2])
O=CO [formate] | 4.5 ± 0.4 | –
O=[N+]([O-])O [nitrate] | – | nitrate is far less effective
